Molecular target: Vasopressin V2 receptor (Canis familiaris)
Assay: In vitro antagonist activity was measured by inhibition of vasopressin-stimulated adenylate cyclase in renal medullary preparation in dog

- Ki: 1000 µM
SMILES: CCOc1ccc(C[C@H]2NC(=O)CC3(CCCCC3)CCC[C@@H](C(=O)N3CCC[C@H]3C(=O)N[C@@H](CCCN=C(N)N)C(N)=O)NC(=O)[C@H](CC(N)=O)NC(=O)[C@H](C(C)C)NC(=O)[C@H](Cc3ccccc3)NC2=O)cc1 [1-[13-Benzyl-19-carbamoylmethyl-10-(4-ethoxy-benzyl)-16-isopropyl-8,11,14,17,20-pentaoxo-9,12,15,18,21-pentaaza-spiro[5.19]pentacosane-22-carbonyl]-pyrrolidine-2-carboxylic acid (1-carbamoyl-4-guanidino-butyl)-amide]

— BindingDB's records for doi:10.1021/jm00403a001 (Smith Kline & French Laboratories, 1988)
